Source: paper PMC9435431, “Novel chemical entities inhibiting Mycobacterium tuberculosis growth identified by phenotypic high-throughput screening” (Scientific Reports, 2022)
In brackets after ≈: the same amount, converted by molar mass. Structures can show the parent of a compound that is named as a salt. Where two headings read alike, the source gives them in different places.

Tested on: wild-type M. tuberculosis
Experiment: microbe, parasite or virus in culture
Assay type: cell-based, Mycobacterium tuberculosis
[1] = Mycobacterium tuberculosis, 120 h, read-out: MIC
[2] = Mycobacterium tuberculosis, read-out: MIC

| SMILES | IC90 (Mycobacterium tuberculosis) [µM] | MIC [1] [µM] | MIC [2] [µM] | anti-tubercular activity (in words) | MIC [µM] |
| --- | --- | --- | --- | --- | --- |
| Cc1nc(-c2ccccn2)nc(NCCNc2ccc(C(F)(F)F)cn2)c1Cl [APDP-2] | 33 |  |  |  |  |
| Cc1nc(-c2ccccn2)nc(NCc2ccccc2)c1Cl [APDP-3] | 6.3 |  |  |  |  |
| CC1C(CNC(=O)Nc2ccccc2)CC2CC1C2(C)C (centres unmarked) [HBU-2] | 4.9 |  |  |  |  |
| CC(=O)c1ccc(NC(=O)NC(C)C23CC4CC(CC(C4)C2)C3)cc1 (centres unmarked) [HBU-3] | 29 |  |  |  |  |
| O=C(NCCc1ccc(Br)cc1)NC12CC3CC(CC(C3)C1)C2 [HBU-4] | 12 |  |  |  |  |
| CC(NC(=O)Nc1nc(-c2ccc(Cl)cc2)cs1)C1CC2C=CC1C2 (centres unmarked) [HBU-5] | 13 |  |  |  |  |
| CCC1(N2CCC(c3ccc(C(C)(C)C)cc3)CC2)CCCCC1 [Molecule 4PP-2, 4-(4-tert-Butyl-phenyl)-1-(1-ethyl-cyclohexyl)-piperidine] |  | 2 ± 0.5 (≈ 0.655 µg/mL) | 2 (≈ 0.655 µg/mL) |  |  |
| CC(C)(C)c1ccc(C2CCN(CC3CCCCC3)CC2)cc1 [Molecule 4PP-3, 4-(4-t-Butylphenyl)-1-(cyclohexylmethyl)piperidine; 2,2,2-trifluoroacetic acid] |  | 6.8 ± 0.9 (≈ 2.13 µg/mL) | 6.8 (≈ 2.13 µg/mL) |  |  |
| c1ccc(C2CCN(CC3CCCCC3)CC2)cc1 [Molecule 4PP-4, 1-Cyclohexylmethyl-4-phenyl-piperidine] |  | 21 ± 9 (≈ 5.41 µg/mL) | 21 (≈ 5.41 µg/mL) |  |  |
| CC(C)(C)c1ccc(C2CCN(S(=O)(=O)C3CCCCC3)CC2)cc1 [Molecule 4PP-5, 4-(4-(t-Butyl)phenyl)-1-(cyclohexylsulfonyl)piperidine] |  | > 20 |  | lost whole-cell activity |  |
| CC(C)(C)c1ccc(C2CCN(C(=O)C3CCCCC3)CC2)cc1 [Molecule 4PP-6, (4-(4-(t-Butyl)phenyl)piperidin-1-yl)(cyclohexyl)methanone] |  | > 20 |  | lost whole-cell activity |  |
| CC(C)(C)NC(=O)N1CCC(c2ccc(C(C)(C)C)cc2)CC1 [Molecule 4PP-7, N-(t-Butyl)-4-(4-(tert-butyl)phenyl)piperidine-1-carboxamide] |  | > 20 |  | loss of activity |  |
| CC(C)(C)c1ccc(C2CCN(C(=O)N3CCCCC3)CC2)cc1 [Molecule 4PP-8, (4-(4-(t-Butyl)phenyl)piperidin-1-yl)(piperidin-1-yl)methanone] |  | > 20 |  | loss of activity |  |
| O=S(=O)(C1CCCCC1)N1CCC(c2ccccc2)CC1 [Molecule 4PP-9, 1-(Cyclohexylsulfonyl)-4-phenylpiperidine] |  | > 20 |  | lost activity |  |
| O=C(C1CCCCC1)N1CCC(c2ccccc2)CC1 [Molecule 4PP-10, Cyclohexyl(4-phenylpiperidin-1-yl) methanone] |  | > 20 |  | lost activity |  |
| CC(C)(C)NC(=O)N1CCC(c2ccccc2)CC1 [Molecule 4PP-11, N-(tert-butyl)-4-phenylpiperidine-1-carboxamide] |  | > 20 |  | lost activity |  |
| O=C(N1CCCCC1)N1CCC(c2ccccc2)CC1 [Molecule 4PP-12, (4-Phenylpiperidin-1-yl)(piperidin-1-yl)methanone] |  | > 20 |  | lost activity |  |
| O=C(NC1CCCCC1)N1CCC(c2ccccc2)CC1 [Molecule 4PP-13, N-cyclohexyl-4-phenylpiperidine-1-carboxamide] |  | > 20 |  | did not furnish activity |  |
| CC(C)(C)CC(=O)N1CCC(c2ccccc2)CC1 [Molecule 4PP-14, 3,3-Dimethyl-1-(4-phenylpiperidin-1-yl)butan-1-one] |  | > 20 |  | did not furnish activity |  |
| CC(C)(C)c1ccc(C2CCN(C3CCCCC3)CC2)cc1 [Molecule 4PP-16, 4-(4-t-Butyl-phenyl)-1-cyclohexyl-piperidine, hydrochloride] |  | 2.7 ± 0.8 | 2.7 |  |  |
| CN(C)C1CCC(N2CCC(c3ccc(C(C)(C)C)cc3)CC2)CC1 (centres unmarked) [Molecule 4PP-17, 4-(4-(4-(t-Butyl)phenyl)piperidin-1-yl)-N,N-dimethylcyclohexan-1-amine] |  | > 20 |  | detrimental to the activity |  |
| COC(=O)C1CCC(N2CCC(c3ccc(C(C)(C)C)cc3)CC2)CC1 (centres unmarked) [Molecule 4PP-18, Methyl 4-(4-(4-(tert-butyl)phenyl)piperidin-1-yl)cyclohexane-1-carboxylate] |  | > 20 |  | loss in activity |  |
| CC(C)(C)c1ccc(C2CCN(C3CCC(C(=O)O)CC3)CC2)cc1 (centres unmarked) [Molecule 4PP-19, 4-(4-(4-(tert-Butyl)phenyl)piperidin-1-yl)cyclohexane-1-carboxylic acid] |  | > 20 |  | loss in activity |  |

| SMILES | IC90 (Mycobacterium tuberculosis) [µM] | MIC [1] [µM] | MIC [2] [µM] | anti-tubercular activity (in words) | MIC [µM] |
| --- | --- | --- | --- | --- | --- |
| CC(C)(C)c1ccc(C2CCN(C3CCC(=O)CC3)CC2)cc1 [Molecule 4PP-20, 4-[4-(4-t-Butyl-phenyl)-piperidin-1-yl]-cyclohexanone] |  | > 20 |  | loss in activity |  |
| CN(C)C1CCC(N2CCC(c3ccccc3)CC2)CC1 (centres unmarked) [Molecule 4PP-21, N,N-dimethyl-4-(4-phenylpiperidin-1-yl)cyclohexan-1-amine] |  | > 20 |  | loss of activity |  |
| COC(=O)C1CCC(N2CCC(c3ccccc3)CC2)CC1 (centres unmarked) [Molecule 4PP-22, Methyl 4-(4-phenylpiperidin-1-yl)cyclohexane-1-carboxylate] |  | > 20 |  | loss of activity |  |
| OC1CCC(N2CCC(c3ccccc3)CC2)CC1 (centres unmarked) [Molecule 4PP-23, 4-(4-Phenylpiperidin-1-yl)cyclohexan-1-ol] |  | > 20 |  | loss of activity |  |
| CC(C)(C)c1ccc(C2CCN(C3CCOCC3)CC2)cc1 [Molecule 4PP-24, 4-(4-(tert-Butyl)phenyl)-1-(tetrahydro-2H-pyran-4-yl)piperidine] |  | > 20 | > 20 |  |  |
| CN1CCC(N2CCC(c3ccc(C(C)(C)C)cc3)CC2)CC1 [Molecule 4PP-25, 4-(4-(tert-Butyl)phenyl)-1'-methyl-1,4'-bipiperidine] |  | > 20 | > 20 |  |  |
| c1ccc(C2CCN(C3CCOCC3)CC2)cc1 [Molecule 4PP-26, 4-Phenyl-1-(tetrahydro-2H-pyran-4-yl)piperidine] |  | > 20 | > 20 |  |  |
| CN1CCC(N2CCC(c3ccccc3)CC2)CC1 [Molecule 4PP-27, 1'-Methyl-4-phenyl-1,4'-bipiperidine] |  | > 20 | > 20 |  |  |
| Brc1cccc(C2CCN(CC3CCCCC3)CC2)c1 [Molecule 4PP-28, 4-(3-Bromophenyl)-1-(cyclohexylmethyl)piperidine; 2,2,2-trifluoroacetic acid] |  | 2.8 ± 0.7 (≈ 0.942 µg/mL) | 2.8 (≈ 0.942 µg/mL) |  |  |
| Clc1cccc(C2CCN(CC3CCCCC3)CC2)c1 [Molecule 4PP-29, 4-(3-Chlorophenyl)-1-(cyclohexylmethyl)piperidine; 2,2,2-trifluoroacetic acid] |  | 4.1 (≈ 1.2 µg/mL) | 4.1 (≈ 1.2 µg/mL) |  |  |
| N#Cc1ccc(C2CCN(CC3CCCCC3)CC2)cc1.O=C(O)C(F)(F)F [Molecule 4PP-30, 4-[1-(Cyclohexylmethyl)-4-piperidyl]benzonitrile; 2,2,2-trifluoroacetic acid] |  | > 20 |  | inactive |  |
| O=C(O)C(F)(F)F.c1ccc2c(C3CCN(CC4CCCCC4)CC3)cccc2c1 [Molecule 4PP-31, 1-(Cyclohexylmethyl)-4-(1-naphthyl)piperidine; 2,2,2-trifluoroacetic acid] | 2.7 | 2.7 ± 2.4 | 2.7 |  |  |
| C1=CC2(CCN(CC3CCCCC3)CC2)c2ccccc21 [Molecule 4PP-35, 1'-(Cyclohexylmethyl)spiro[indene-1,4'-piperidine]; 2,2,2-trifluoroacetic acid] |  | 6.3 ± 0.1 (≈ 1.77 µg/mL) | 6.3 (≈ 1.77 µg/mL) |  |  |
| CC(=O)C1(c2ccccc2)CCN(CC2CCCCC2)CC1 [Molecule 4PP-36, 1-[1-(Cyclohexylmethyl)-4-phenyl-4-piperidyl]ethanone] |  | > 20 |  |  |  |
| N#CC1(c2ccccc2)CCN(CC2CCCCC2)CC1 [Molecule 4PP-37, 1-(Cyclohexylmethyl)-4-phenyl-piperidine-4-carbonitrile; 2,2,2-trifluoroacetic acid] |  | > 20 |  |  |  |
| CC(=O)NCC1(c2ccccc2)CCN(CC2CCCCC2)CC1 [Molecule 4PP-38, N-[[1-(Cyclohexylmethyl)-4-phenyl-4-piperidyl]methyl]acetamide; 2,2,2-trifluoroacetic acid] |  | > 20 |  |  |  |
| COC(=O)C1(c2ccccc2)CCN(CC2CCCCC2)CC1 [Molecule 4PP-39, Methyl 1-(cyclohexylmethyl)-4-phenyl-piperidine-4-carboxylate; 2,2,2-trifluoroacetic acid] |  | > 20 |  |  |  |
| OCC1(c2ccccc2)CCN(CC2CCCCC2)CC1 [Molecule 4PP-40, [1-(Cyclohexylmethyl)-4-phenyl-4-piperidyl]methanol; 2,2,2-trifluoroacetic acid] |  | > 20 |  |  |  |
| c1ccc(C2CCN(Cc3ccc4c(c3)OCO4)CC2)cc1 [Molecule 4PP-42, 1-(Benzo[d][1,3]dioxol-5-ylmethyl)-4-phenylpiperidine] |  | > 20 |  | inactive |  |
| CC(C)(C)CC(C)(C)N1CCC(c2ccc(C(C)(C)C)cc2)CC1 [Molecule 4PP-43, 4-(4-t-Butyl-phenyl)-1-(1,1,3,3-tetramethyl-butyl)-piperidine] |  | 5.9 (≈ 1.94 µg/mL) |  |  | 5.2 ± 1.9 (≈ 1.71 µg/mL) |
| CC(C)(C)CC(C)(C)N1CCC(c2ccccc2)CC1 [Molecule 4PP-44, 4-Phenyl-1-(1,1,3,3-tetramethyl-butyl)-piperidine] | 5.2 | 5.2 ± 5 (≈ 1.42 µg/mL) | 5.2 (≈ 1.42 µg/mL) |  |  |
| CC(C)(C)CC(C)(C)N1CC=C(c2c[nH]c3ncccc23)CC1 [Molecule 4PP-45, 3-(1-(2,4,4-Trimethylpentan-2-yl)-1,2,3,6-tetrahydropyridin-4-yl)-1H-pyrrolo[2,3-b]pyridine] |  | > 20 |  | inactive |  |
| CC(C)(C)CC(C)(C)N1CCC(c2c[nH]c3ncccc23)CC1 [Molecule 4PP-46, 3-(1-(2,4,4-Trimethylpentan-2-yl)piperidin-4-yl)-1H-pyrrolo[2,3-b]pyridine] |  | > 20 |  | inactive |  |
